Reference: patent US10226530B2, “Methods for treating and/or limiting development of diabetes” (Biocrine AB, priority 2011, dated 2019)
Entries after “also recorded” stand apart in the source; their conditions may differ.

Legend:
β cell CaV channels [1] = experiment: perforated whole-cell patch-clamp of Ca2+ currents in RINm5F cells; assay type: cell-based, rat
Protocol: (§1) Islets of Langerhans were isolated from adult male and female mice and dispersed into single ([…]. RINm5F cells at about 70% confluency were trypsinized. The resultant suspension of cells was seeded into Petri dishes or 12-well plates. The cells were cultivated in RPMI 1640 medium supplemented with 10% fetal bovine serum, 2 mM L-glutamine, and 100 U/100 […] penicillin/streptomycin (Invitrogen, Carlsbad, Calif.) and maintained at 37° C. in a humidified 5% CO2 incubator. They were grown overnight and then subjected to siRNA transfection. For patch-clamp analysis, cells underwent overnight treatment with ApoCIII, the PKA inhibitor H-89 (Calbiochem, La Jolla, Calif.), the PKC inhibitor calphostin C (Calbiochem), the Src kinase inhibitor PP2 (Calbiochem) and the CaV1 channel blocker nimodipine (Calbiochem) in RPMI medium at final concentrations of 20 μg/ml, 0.5 μM, 0.1 μM, 0.1 μM and 5 μM, respectively. ApoCIII was dissolved in 0.1% triflouroacetic acid (TFA) to make a stock solution of 1 mg/ml, whereas H-89, calphostin C, PP2 and nimodipine were dissolved in dimethyl sulfoxide (DMSO) to form stock solutions of 5 mM, 1 mM, 1 mM and 10 mM, respectively. 0.002% TFA and/or 0.03% DMSO were used as vehicle controls.
Two pairs of 21-mer siRNA duplexes targeting the rat β1 integrin (β1 integrin siRNA #1, ID127971 and β1 integrin siRNA #2, ID127972) were designed and chemically synthesized by Applied Biosystems/Ambion (Austin, Tex.). Their sequences were subjected to BLAST search to ensure their specificity. Silencer® Select Negative Control siRNA (4390843), not targeting any gene product, and Silencer® Select GAPDH Positive Control siRNA (4390849), efficiently silencing GAPDH in human, mouse, and rat cells, were purchased from Applied Biosystems/Ambion (Austin, Tex.). RINm5F cells were reversely transfected with Lipofectamine™ RNAiMAX™. Briefly, negative control siRNA, β1 integrin siRNA #1 or β1 integrin siRNA #2 was mixed with Lipofectamine™ RNAiMAX™ followed by 20-min incubation at room temperature. Subsequently, cells were added to the siRNA/Lipofectamine™ RNAiMAX mixtures followed by gentle agitation and kept at 37° C. in a humidified 5% CO2 incubator. After 72 h, the transfected cells were grown to about 70% confluency and subjected to immunoblot assay or different treatments.
(§2) Mouse islet cells and RINm5F cells following different treatments were subjected to single channel and whole-cell patch-clamp measurements. Cell-attached and perforated whole-cell patch-clamp configurations were employed. Electrodes were made from borosilicate glass capillaries, fire-polished and coated with Sylgard close to their tips. Some of them were filled with a solution containing (in mM) 110 BaCl2, 10 TEA-Cl, and 5 HEPES (pH 7.4 with Ba(OH)2) for single channel measurements. Others were filled with a solution composed of (in mM) 76 Cs2SO4, 1 MgCl2, 10 KCl, 10 NaCl, and 5 HEPES (pH 7.35 with CsOH), as well as amphotericin B (0.24 mg/ml) for whole-cell current recordings. Electrode resistance ranged between 4 and 6 MΩ when they were filled with electrode solutions and immersed in bath solutions. The electrode offset potential was corrected in bath solutions prior to gigaseal formation. Single-channel recordings were performed with cells bathed in a depolarizing external recording solution, containing (in mM) 125 KCl, 30 KOH, 10 EGTA, 2 CaCl2, 1 MgCl2, and 5 HEPES-KOH (pH 7.15). This solution was used to bring the intracellular potential to 0 mV. For perforated whole-cell current measurements, the cells were bathed in a solution containing (in mM) 138 NaCl, 5.6 KCl, 1.2 MgCl2, 10 CaCl2, 5 HEPES (pH 7.4). Single channel and whole-cell currents were recorded with an Axopatch 200B amplifier (Molecular Devices, Foster City, Calif.) and an EPC-9 patch clamp amplifier (HEKA Elektronik, Lambrecht/Pfalz, Germany), respectively, at room temperature (about 22° C.). […]

CaV1.3 = experiment: immunoblot of CaV1.3 subunit in RINm5F cell homogenates; assay type: cell-based, rat; conditions: overnight ApoCIII; P>0.05
Protocol: as §1, with “ApoCIII was dissolved in 0.1% triflouroacetic acid (TFA) to make a stock solution of 1 mg/ml, whereas H-89, calphostin C, PP2 and nimodipine were dissolved in dimethyl sulfoxide (DMSO) to form stock solutions of 5 mM, 1 mM, 1 mM and 10 mM, respectively. 0.002% TFA and/or 0.03% DMSO were used as vehicle controls.” left out
(§3) RINm5F cells following different treatments were lysed in a lysis buffer (pH 7.5) consisting of 50 mM HEPES, 150 mM NaCl, 1 mM EGTA, 1 mM EDTA, 10% glycerol, 1% triton X-100, 1 mM PMSF and a protease inhibitor cocktail (Roche Diagnostics, Mannheim, Germany). […] The protein concentration of the resulting samples was determined with Bio-Rad protein assay reagent (Bio-Rad, Hercules, Calif.). […]

CaV1 channels [2] = experiment: cell-attached single channel patch-clamp of unitary CaV1 channel currents in RINm5F cells; assay type: cell-based, rat; conditions: ApoCIII 20 μg/ml overnight versus vehicle solution
Protocol: as §1
as §2, with “For perforated whole-cell current measurements, the cells were bathed in a solution containing (in mM) 138 NaCl, 5.6 KCl, 1.2 MgCl2, 10 CaCl2, 5 HEPES (pH 7.4).” left out

CaV1 channels [3] = experiment: cell-attached single channel patch-clamp of unitary CaV1 channel currents in mouse islet β cells; assay type: cell-based
Protocol: as §1
as §2, with “For perforated whole-cell current measurements, the cells were bathed in a solution containing (in mM) 138 NaCl, 5.6 KCl, 1.2 MgCl2, 10 CaCl2, 5 HEPES (pH 7.4).” left out

β cell CaV channels [4] = conditions: mouse islet β cell; Juntti-Berggren et al., 2004; cited from earlier work
CaV1.2 = experiment: immunoblot of CaV1.2 subunit in RINm5F cell homogenates; assay type: cell-based, rat; conditions: overnight ApoCIII; P>0.05
Protocol: as §1, with “ApoCIII was dissolved in 0.1% triflouroacetic acid (TFA) to make a stock solution of 1 mg/ml, whereas H-89, calphostin C, PP2 and nimodipine were dissolved in dimethyl sulfoxide (DMSO) to form stock solutions of 5 mM, 1 mM, 1 mM and 10 mM, respectively. 0.002% TFA and/or 0.03% DMSO were used as vehicle controls.” left out
as §3

[5] = H-89 0.5 μM, ApoCIII 20 μg/ml, overnight
[6] = ApoCIII 20 μg/ml overnight versus control vehicle

O=S(=O)(NCCNC/C=C/c1ccc(Br)cc1)c1cccc2cnccc12 [H-89]
Ca2+ current density, cotreatment of ApoCIII and H-89 versus cells treated with ApoCIII (β cell CaV channels [1]; [5]): did not significantly differ
Ca2+ current density, cotreatment of ApoCIII and H-89 versus control cells (β cell CaV channels [1]; [5]): did not significantly differ
Ca2+ current densities under basal conditions, H-89 versus control (β cell CaV channels [1]; H-89 0.5 μM, absence of ApoCIII): did not significantly influence

CC(C)(C)n1nc(-c2ccc(Cl)cc2)c2c(N)ncnc21 [PP2]
difference in Ca2+ current density to vehicle: ApoCIII/PP2-cotreated cells compared with that of ApoCIII-treated cells (β cell CaV channels [1]; PP2 0.1 μM): less prominent
Ca2+ current densities, cells incubated with PP2 versus vehicle-treated cells (β cell CaV channels [1]; PP2 0.1 μM, absence of ApoCIII): similar
Ca2+ currents, cotreatment of ApoCIII and PP2 versus vehicle control cells (β cell CaV channels [1]; voltage range 20-40 mV, PP2 0.1 μM): significantly larger

apolipoprotein CIII [ApoCIII]
relative abundance of CaV1.3 subunits, ApoCIII incubation versus vehicle incubation (CaV1.3): no significant difference
channel number of CaV1 channels (CaV1 channels [2]): significantly increased
mean closed time of CaV1 channels (CaV1 channels [2]): shortened
mean open time of CaV1 channels (CaV1 channels [2]): prolonged
open probability of CaV1 channels (CaV1 channels [2]): elevated
mean closed time of unitary CaV1 channels (CaV1 channels [3]; ApoCIII 20 μg/ml overnight versus control patches): significantly shorter
mean open time of unitary CaV1 channels (CaV1 channels [3]; [6]): significantly greater
open probability of unitary CaV1 channels (CaV1 channels [3]; [6]): significantly greater
average number of unitary CaV1 channels (CaV1 channels [3]; ApoCIII 20 μg/ml overnight versus control vehicle, plasma membrane patches): significantly greater
whole-cell Ca2+ currents after ApoCIII incubation (β cell CaV channels [4]): significantly enhances
relative abundance of CaV1.2 subunits, ApoCIII incubation versus vehicle incubation (CaV1.2): no significant difference
density of whole-cell Ca2+ currents, ApoCIII group versus control group (β cell CaV channels [1]; no voltage range printed, H-89/PP2 experiment): Significantly higher
Ca2+ current density, NC siRNA/apoCIII versus NC siRNA/Control (β cell CaV channels [1]; voltage range 10-40 mV, negative control siRNA-transfected cells): significant increase
whole-cell Ca2+ current density, ApoCIII-treated cells versus vehicle control cells (β cell CaV channels [1]; voltage range 10 to 50 mV, ApoCIII 20 μg/ml overnight): significantly higher; also recorded: increased significantly; also recorded: significantly elevated; also recorded: significantly increased
whole-cell Ca2+ current density, ApoCIII group versus control group (β cell CaV channels [1]; voltage range from 10 to 30 mV, ApoCIII 20 μg/ml overnight): significantly higher

calphostin C [CalpC]
Ca2+ current density, ApoCIII/CalpC-cotreated cells versus ApoCIII-treated cells (β cell CaV channels [1]; calphostin C 0.1 μM): no difference
Ca2+ current density, CalpC-treated cells versus control vehicle (β cell CaV channels [1]; calphostin C 0.1 μM, absence of ApoCIII): similar
mean Ca2+ current density, ApoCIII/CalpC versus vehicle control cells (β cell CaV channels [1]; voltage range from 20 to 50 mV, calphostin C 0.1 μM): increased significantly
